# Legend:
# Type in all cases: in vivo
# Triticum aestivum [1] = experiment: Preemergence herbicidal activity (Example 67); design: herbicide rating, TRZAW: scale not given here; details: pre, 800 g/ha
# Method in brief: (§1)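 Cups filled with a horticultural substrate (peat, volcanic clay, bark residues, polyamide) mixed 1:3 with loamy sand were sprayed on the soil surface with compound at 800g/ha. Plants were then grown on greenhouse benches and evaluated roughly 1-3 weeks later.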
# Hordeum vulgare [2] = experiment: Preemergence herbicidal activity (Example 67); design: herbicide rating, HORVW: scale not given here; details: pre, 800 g/ha
# Method in brief: as §1
# Alopecurus myosuroides [3] = experiment: Preemergence herbicidal activity (Example 67); design: herbicide rating, ALOMY: scale not given here; details: pre, 800 g/ha
# Method in brief: as §1
# Setaria viridis [4] = experiment: Preemergence herbicidal activity (Example 67); design: herbicide rating, SETVI: scale not given here; details: pre, 800 g/ha
# Method in brief: as §1
# Abutilon theophrasti [5] = experiment: Preemergence herbicidal activity (Example 67); details: pre, 800 g/ha
# Method in brief: as §1
# Amaranthus retroflexus [6] = experiment: Preemergence herbicidal activity (Example 67); details: pre, 800 g/ha
# Method in brief: as §1
# Chenopodium album [7] = experiment: Preemergence herbicidal activity (Example 67); details: pre, 800 g/ha
# Method in brief: as §1
# Galium aparine [8] = experiment: Preemergence herbicidal activity (Example 67); details: pre, 800 g/ha
# Method in brief: as §1
# Helianthus annuus [9] = experiment: Preemergence herbicidal activity (Example 67); details: pre, 800 g/ha
# Method in brief: as §1
# Ipomoea hederacea [10] = experiment: Preemergence herbicidal activity (Example 67); details: pre, 800 g/ha
# Method in brief: as §1
# Veronica persica [11] = experiment: Preemergence herbicidal activity (Example 67); details: pre, 800 g/ha
# Method in brief: as §1
# Zea mays [12] = experiment: Preemergence herbicidal activity (Example 67); details: pre, 800 g/ha
# Method in brief: as §1
# Abutilon theophrasti [13] = experiment: Postemergence herbicidal activity (Example 67); details: pos, 800 g/ha
# Method in brief: (§2)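 Test compound is dissolved in acetone with 0.5% TRITON X-155 and diluted with water. It is then sprayed at 800g/ha (400 L/ha, 3 bar) onto 3-6 week old plants. The plants are kept in the greenhouse and rated after 10-21 days.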
# Alopecurus myosuroides [14] = experiment: Postemergence herbicidal activity (Example 67); details: pos, 800 g/ha
# Method in brief: as §2
# Amaranthus retroflexus [15] = experiment: Postemergence herbicidal activity (Example 67); details: pos, 800 g/ha
# Method in brief: as §2
# Chenopodium album [16] = experiment: Postemergence herbicidal activity (Example 67); details: pos, 800 g/ha
# Method in brief: as §2
# Galium aparine [17] = experiment: Postemergence herbicidal activity (Example 67); details: pos, 800 g/ha
# Method in brief: as §2
# Helianthus annuus [18] = experiment: Postemergence herbicidal activity (Example 67); details: pos, 800 g/ha
# Method in brief: as §2
# Hordeum vulgare [19] = experiment: Postemergence herbicidal activity (Example 67); details: pos, 800 g/ha
# Method in brief: as §2
# Ipomoea hederacea [20] = experiment: Postemergence herbicidal activity (Example 67); details: pos, 800 g/ha
# Method in brief: as §2
# Setaria viridis [21] = experiment: Postemergence herbicidal activity (Example 67); details: pos, 800 g/ha
# Method in brief: as §2
# Triticum aestivum [22] = experiment: Postemergence herbicidal activity (Example 67); details: pos, 800 g/ha
# Method in brief: as §2
# Veronica persica [23] = experiment: Postemergence herbicidal activity (Example 67); details: pos, 800 g/ha
# Method in brief: as §2
# Zea mays [24] = experiment: Postemergence herbicidal activity (Example 67); details: pos, 800 g/ha
# Method in brief: as §2
# [25] = rated about 1-3 weeks after treatment
structure (smiles),measurement,setting,value
COc1ccc(-c2nsc(C(=O)NCc3cccs3)n2)cc1 [Example 36],"herbicide rating, TRZAW",Triticum aestivum [1]; [25],0
same,"herbicide rating, HORVW",Hordeum vulgare [2]; [25],0
same,"herbicide rating, ALOMY",Alopecurus myosuroides [3]; [25],0
same,"herbicide rating, SETVI",Setaria viridis [4]; [25],0
same,"herbicide rating, ABUTH",Abutilon theophrasti [5]; [25],0
same,"herbicide rating, AMARE",Amaranthus retroflexus [6]; [25],0
same,"herbicide rating, CHEAL",Chenopodium album [7]; [25],0
same,"herbicide rating, GALAP",Galium aparine [8]; [25],0
same,"herbicide rating, HELAN",Helianthus annuus [9]; [25],0
same,"herbicide rating, IPOHE",Ipomoea hederacea [10]; [25],2 (6-15%)
same,"herbicide rating, VERPE",Veronica persica [11]; [25],0
same,"herbicide rating, ZEAMX",Zea mays [12]; [25],3 (16-29%)
same,"herbicide rating, ABUTH",Abutilon theophrasti [13]; rated after 10-21 days,1 (1-5%)
same,"herbicide rating, ALOMY",Alopecurus myosuroides [14]; rated after 10-21 days,3 (16-29%)
same,"herbicide rating, AMARE",Amaranthus retroflexus [15]; rated after 10-21 days,2 (6-15%)
same,"herbicide rating, CHEAL",Chenopodium album [16]; rated after 10-21 days,3 (16-29%)
same,"herbicide rating, GALAP",Galium aparine [17]; rated after 10-21 days,2 (6-15%)
same,"herbicide rating, HELAN",Helianthus annuus [18]; rated after 10-21 days,4 (30-44%)
same,"herbicide rating, HORVW",Hordeum vulgare [19]; rated after 10-21 days,0
same,"herbicide rating, IPOHE",Ipomoea hederacea [20]; rated after 10-21 days,3 (16-29%)
same,"herbicide rating, SETVI",Setaria viridis [21]; rated after 10-21 days,7 (80-90%)
same,"herbicide rating, TRZAW",Triticum aestivum [22]; rated after 10-21 days,3 (16-29%)
same,"herbicide rating, VERPE",Veronica persica [23]; rated after 10-21 days,2 (6-15%)
same,"herbicide rating, ZEAMX",Zea mays [24]; rated after 10-21 days,0
"C[C@H](NC(=O)c1nsc(-c2ccc(F)cc2)n1)c1ccccc1 [Example 40, (S)-5-(4-Fluorophenyl)-[1,2,4]thiadiazole-3-carboxylic acid, 1-(phenylethyl)amide]",TRZ AW rating,Triticum aestivum [1],0
same,HOR VW rating,Hordeum vulgare [2],0
same,ALO MY rating,Alopecurus myosuroides [3],0
same,SET VI rating,Setaria viridis [4],4 (30-44%)
same,ABU TH rating,Abutilon theophrasti [5],8 (91-99%)
same,AMA RE rating,Amaranthus retroflexus [6],0
same,CHE AL rating,Chenopodium album [7],4 (30-44%)
same,GAL AP rating,Galium aparine [8],0
same,HEL AN rating,Helianthus annuus [9],4 (30-44%)
same,IPO HE rating,Ipomoea hederacea [10],0
same,VER PE rating,Veronica persica [11],5 (45-64%)
same,ZEA MX rating,Zea mays [12],0
same,ABU TH rating,Abutilon theophrasti [13],8 (91-99%)
same,ALO MY rating,Alopecurus myosuroides [14],5 (45-64%)
same,AMA RE rating,Amaranthus retroflexus [15],8 (91-99%)
same,CHE AL rating,Chenopodium album [16],8 (91-99%)
same,GAL AP rating,Galium aparine [17],8 (91-99%)
same,HEL AN rating,Helianthus annuus [18],9 (100% effect)
same,HOR VW rating,Hordeum vulgare [19],6 (65-79%)
same,IPO HE rating,Ipomoea hederacea [20],8 (91-99%)
same,SET VI rating,Setaria viridis [21],9 (100% effect)
same,TRZ AW rating,Triticum aestivum [22],4 (30-44%)
same,VER PE rating,Veronica persica [23],8 (91-99%)
same,ZEA MX rating,Zea mays [24],5 (45-64%)
C[C@H](NC(=O)c1nsc(-c2cccc(C(F)(F)F)c2)n1)c1ccccc1 [Example 42],TRZ AW rating,Triticum aestivum [1],0
same,HOR VW rating,Hordeum vulgare [2],0
same,ALO MY rating,Alopecurus myosuroides [3],0
same,SET VI rating,Setaria viridis [4],0
same,ABU TH rating,Abutilon theophrasti [5],0
same,AMA RE rating,Amaranthus retroflexus [6],0
same,CHE AL rating,Chenopodium album [7],5 (45-64%)
same,GAL AP rating,Galium aparine [8],2 (6-15%)
same,HEL AN rating,Helianthus annuus [9],0
same,IPO HE rating,Ipomoea hederacea [10],0
same,VER PE rating,Veronica persica [11],2 (6-15%)
same,ZEA MX rating,Zea mays [12],0
same,ABU TH rating,Abutilon theophrasti [13],0
same,ALO MY rating,Alopecurus myosuroides [14],1 (1-5%)
same,AMA RE rating,Amaranthus retroflexus [15],0
same,CHE AL rating,Chenopodium album [16],3 (16-29%)
same,GAL AP rating,Galium aparine [17],0
same,HEL AN rating,Helianthus annuus [18],3 (16-29%)
same,HOR VW rating,Hordeum vulgare [19],2 (6-15%)
same,IPO HE rating,Ipomoea hederacea [20],2 (6-15%)
same,SET VI rating,Setaria viridis [21],5 (45-64%)
same,TRZ AW rating,Triticum aestivum [22],2 (6-15%)
same,VER PE rating,Veronica persica [23],0
same,ZEA MX rating,Zea mays [24],0
O=C(NCc1cccs1)c1nc(-c2cccc(F)c2)ns1 [Example 44],TRZ AW rating,Triticum aestivum [1],0
same,HOR VW rating,Hordeum vulgare [2],0
same,ALO MY rating,Alopecurus myosuroides [3],4 (30-44%)
same,SET VI rating,Setaria viridis [4],3 (16-29%)
same,ABU TH rating,Abutilon theophrasti [5],0
same,AMA RE rating,Amaranthus retroflexus [6],0
same,CHE AL rating,Chenopodium album [7],0
same,GAL AP rating,Galium aparine [8],0
same,HEL AN rating,Helianthus annuus [9],0
same,IPO HE rating,Ipomoea hederacea [10],3 (16-29%)
same,VER PE rating,Veronica persica [11],0
same,ZEA MX rating,Zea mays [12],0
same,ABU TH rating,Abutilon theophrasti [13],0
same,ALO MY rating,Alopecurus myosuroides [14],0
same,AMA RE rating,Amaranthus retroflexus [15],0
same,CHE AL rating,Chenopodium album [16],0
same,GAL AP rating,Galium aparine [17],3 (16-29%)
same,HEL AN rating,Helianthus annuus [18],0
same,HOR VW rating,Hordeum vulgare [19],3 (16-29%)
same,IPO HE rating,Ipomoea hederacea [20],3 (16-29%)
same,SET VI rating,Setaria viridis [21],3 (16-29%)
same,TRZ AW rating,Triticum aestivum [22],3 (16-29%)
same,VER PE rating,Veronica persica [23],0
same,ZEA MX rating,Zea mays [24],2 (6-15%)

# From EP0726261A1, “Herbidical 1,2,4 thiadiazoles” (American Cyanamid Company, priority 1995, dated 1996)
